# Marks after values point to notes of the source that are not given here. Where a SMILES comes first, the peptide text is derived from it. Bridges are numbered along the chain shown (N, C = ends). [ ]: non-standard residue; d: D form. R8 = C=CCCCCCC[C@@](C)(N)C(=O)O; S5 = C=CCCC[C@](C)(N)C(=O)O
# Tests used:
# [1] = tested on: Erlotinib-resistant lung adenocarcinoma PDX TM00784; test: Lung cancer PDX mouse model TM00784; assay type: in vivo
# Source text: The following PDX mouse models were generated by Jackson Labs (Sacramento, CA): Breast TM01278; Grade 3 invasive ductal carcinoma, primary malignancy; EGFR inactivating R521K mutation; ERBB3 G1288A mutation in kinase domain with unknown effects on activity; increased EGFR/ERBB2/ERBB3. Lung TM00784; Grade 3 lung adenocarcinoma, primary malignancy; EGFR activating L858R mutation; increased EGFR, decreased ERBB2/ERBB3/ERBB4. All animals were maintained as outlined by University of Arizona Institutional Animal Care and Use Committee (IACUC) by the Experimental Mouse Shared Resource (EMSR).
# Fig. 3 SAH5-EJ1 inhibits growth and prolongs survival in PDX models of lung cancer. a, b Cell viability assays performed in A549 or EGFR T790M mutated H1975 lung adenocarcinoma cells over 3 days comparing treatment with Sapitinib (blue lines) to SAH5-EJ1 (red lines). Solid lines represent 24 h; dashed lines represent 72 h. Data shown represent mean ± percent difference of assays performed in quadruplicate. c Reduction in tumor burden in Erlotinib-resistant lung cancer PDX mouse model TM00784 with various doses of intravenous SAH5-EJ1. Control represents water as a vehicle control. *p < 0.05 (Control vs 1 µg/g); **p < 0.01 (Control vs 1 µg/g and vs 10 µg/g). d Kaplan–Meier curve of lung PDX mouse model treated with control (blue line) or either 1 or 10 µg/g SAH5-EJ1 (green line and red line, respectively). Data shown represent mean. N = 6 for all groups
# [2] = 28-day toxicity study: clinical chemistry; assay type: in vivo, CD-1 mice; settings: day 29, mean ± SD
# Protocol: (§1) Toxicology was performed by IITRI. The study was conducted in compliance with the US Food and Drug Administration (FDA) good laboratory practice (GLP) Regulations (Code of Federal Regulations Title 21 Part 58) to evaluate the toxicokinetics, local tolerability, immunogenicity, and potential toxicity of SAH5-EJ1 following three times per week intravenous (IV) dosing for 28 days in mice. Male and female CD-1 IGS [Crl:CD1(ICR)] mice (135 per sex) were received from Wilmington, MA-based Charles River Laboratories, Inc.’s Kingston facility (Stone Ridge, NY).
# [3] = 28-day toxicity study: injection site reactogenicity; assay type: in vivo, CD-1 mice; settings: female, 10 examined
# Protocol: as §1
# Response measured at 6 and 24 hours post-injection.
smiles,measurement,setting,value
CC[C@H](C)[C@H](NC(=O)[C@H](Cc1c[nH]cn1)NC(=O)[C@H](CCCNC(=N)N)NC(=O)[C@H](CCCNC(=N)N)NC(=O)[C@H](CCCNC(=N)N)NC(=O)[C@H](CCSC)NC(=O)[C@H](Cc1ccccc1)NC(=O)[C@H](C)NC(=O)[C@H](CCCNC(=N)N)NC(=O)[C@H](C)NC(=O)[C@H](CCC(N)=O)NC(=O)[C@H](CCCNC(=N)N)NC(=O)[C@H](C)NC(=O)[C@H](C)NC(=O)[C@H](C)NC(=O)[C@H](CCCNC(=N)N)NC(=O)[C@H](C)NC(=O)[C@@H](N)Cc1ccc(O)cc1)C(=O)N[C@H](C(=O)N[C@@H](CCCNC(=N)N)C(=O)N[C@@H](CCCCN)C(=O)N[C@@H](CCCNC(=N)N)C(=O)N[C@]1(C)CCCCCCC=CCCC[C@@](C)(C(=O)N[C@@H](CCCNC(=N)N)C(=O)N[C@@H](CCC(=O)O)C(N)=O)NC(=O)[C@H](CCC(N)=O)NC(=O)[C@H](CC(C)C)NC(=O)[C@H](CC(C)C)NC(=O)[C@H](CCCNC(=N)N)NC(=O)[C@H](CCCNC(=N)N)NC(=O)[C@H](CC(C)C)NC1=O)C(C)C [SAH5-EJ1] (H-YARAAARQARAFMRRRHIVRKR[R8]LRRLLQ[S5]RE-NH2; staple 23-30),survival relative to control-treated mice,[1]; 1 µg/g (low dose) IV,1.7 ×
same,decrease in average tumor burden,"[1]; 1 µg/g IV, N = 6",> 50%
same,toxicity in the model,[1]; 1 or 10 µg/g IV,no detected toxicity
same,ALP,"[2]; female, 5 mg/kg, N = 5",88 ± 33.2 IU/L
same,ALT,"[2]; female, 5 mg/kg, N = 5",79 ± 35.0 IU/L
same,AST,"[2]; female, 5 mg/kg, N = 5",80 ± 8.3^a IU/L
same,BUN,"[2]; female, 5 mg/kg, N = 5",19 ± 2.2 mg/dL
same,TBIL,"[2]; female, 5 mg/kg, N = 5",0.2 ± 0.05 mg/dL
same,ALP,"[2]; female, 10 mg/kg, N = 5",70 ± 48.4 IU/L
same,ALT,"[2]; female, 10 mg/kg, N = 5",61 ± 18.5 IU/L
same,AST,"[2]; female, 10 mg/kg, N = 5",83 ± 19.0 IU/L
same,BUN,"[2]; female, 10 mg/kg, N = 5",19 ± 3.0 mg/dL
same,TBIL,"[2]; female, 10 mg/kg, N = 5",0.1 ± 0.05 mg/dL
same,ALP,"[2]; female, 15 mg/kg, N = 4",62 ± 18.4 IU/L
same,ALT,"[2]; female, 15 mg/kg, N = 4",90 ± 27.2 IU/L
same,AST,"[2]; female, 15 mg/kg, N = 4",93 ± 12.5 IU/L
same,BUN,"[2]; female, 15 mg/kg, N = 4",22 ± 2.5 mg/dL
same,TBIL,"[2]; female, 15 mg/kg, N = 4",0.1 ± 0^b mg/dL
same,ALP,"[2]; male, 5 mg/kg, N = 4",68 ± 13.8 IU/L
same,ALT,"[2]; male, 5 mg/kg, N = 4",124 ± 71.5 IU/L
same,AST,"[2]; male, 5 mg/kg, N = 4",92 ± 28.6 IU/L
same,BUN,"[2]; male, 5 mg/kg, N = 4",26 ± 2.2 mg/dL
same,TBIL,"[2]; male, 5 mg/kg, N = 4",0.2 ± 0.05 mg/dL
same,ALP,"[2]; male, 10 mg/kg, N = 5",73 ± 19.7 IU/L
same,ALT,"[2]; male, 10 mg/kg, N = 5",96 ± 28.3 IU/L
same,AST,"[2]; male, 10 mg/kg, N = 5",83 ± 23.6 IU/L
same,BUN,"[2]; male, 10 mg/kg, N = 5",31 ± 7.3 mg/dL
same,TBIL,"[2]; male, 10 mg/kg, N = 5",0.2 ± 0.04 mg/dL
same,ALP,"[2]; male, 15 mg/kg, N = 4",58 ± 10.5 IU/L
same,ALT,"[2]; male, 15 mg/kg, N = 4",67 ± 32.3 IU/L
same,AST,"[2]; male, 15 mg/kg, N = 4",63 ± 13.5 IU/L
same,BUN,"[2]; male, 15 mg/kg, N = 4",23 ± 2.9 mg/dL
same,TBIL,"[2]; male, 15 mg/kg, N = 4",0.2 ± 0.05 mg/dL
same,Edema (animals),[3]; 5 mg/kg,10
same,"Edema: 0 - Normal, no swelling (animals)",[3]; 5 mg/kg,10
same,"Edema: 1 - Minimal, slight swelling (animals)",[3]; 5 mg/kg,5
same,"Edema: 2 - Mild, defined swelling (animals)",[3]; 5 mg/kg,0
same,"Edema: 3 - Moderate, defined swelling, raised border (animals)",[3]; 5 mg/kg,0
same,Erythema and Eschar Formation (animals),[3]; 5 mg/kg,10
same,Erythema and Eschar: 0 - Normal (animals),[3]; 5 mg/kg,10
same,Erythema and Eschar: 1 - Minimal (animals),[3]; 5 mg/kg,4
same,"Erythema and Eschar: 2 - Mild, bright pink/pale, distinct (animals)",[3]; 5 mg/kg,4
same,"Erythema and Eschar: 3 - Moderate, bright red, distinct (animals)",[3]; 5 mg/kg,0
same,"Erythema and Eschar: 4 - Severe, dark red, pronounced (animals)",[3]; 5 mg/kg,1
same,Injection site reactogenicity: Animals with Signs,"[3]; 5 mg/kg, 28-day study",10
same,Edema (animals),[3]; 10 mg/kg,10
same,"Edema: 0 - Normal, no swelling (animals)",[3]; 10 mg/kg,10
same,"Edema: 1 - Minimal, slight swelling (animals)",[3]; 10 mg/kg,10
same,"Edema: 2 - Mild, defined swelling (animals)",[3]; 10 mg/kg,3
same,"Edema: 3 - Moderate, defined swelling, raised border (animals)",[3]; 10 mg/kg,0
same,Erythema and Eschar Formation (animals),[3]; 10 mg/kg,10
same,Erythema and Eschar: 0 - Normal (animals),[3]; 10 mg/kg,10
same,Erythema and Eschar: 1 - Minimal (animals),[3]; 10 mg/kg,10
same,"Erythema and Eschar: 2 - Mild, bright pink/pale, distinct (animals)",[3]; 10 mg/kg,7

# — paper PMC6582486, “Stapled EGFR peptide reduces inflammatory breast cancer and inhibits additional HER-driven models of cancer” (Journal of Translational Medicine, 2019)
